Results published in PubChem BioAssay AID1996.
Values after ≈ are worked out from the molar mass of the structure shown.

Settings: buffer; pH 7.4; 200.0 µM

Row | solubility kinetic | SMILES
1 | 0.0007 mg/mL (≈ 2.27 µM) | Cc1ccc2cc3cc(C(=O)NC4CCCCC4)oc3nc2c1
2 | > 0.0494 mg/mL | CC1=C(C)CC(C(=O)NC(C)CCc2ccccc2)C(C(=O)O)C1 (centres undefined)
3 | > 0.0457 mg/mL | S=c1[nH]nc(-c2cccc3ccccc23)n1-c1cccnc1
4 | 0.001 mg/mL (≈ 2.96 µM) | COc1ccccc1/C=C/C(=O)Nc1ccc(N2CCOCC2)cc1
5 | > 0.0466 mg/mL | O=C(CSc1ccccc1F)NCCCN1CCCC1=O
6 | > 0.0465 mg/mL | O=C(O)c1cccnc1Sc1ccc(Br)cc1
7 | > 0.0539 mg/mL | CCc1cccc(C)c1NC(=O)CN1C(=O)NC(C)(CCC(C)C)C1=O (centres undefined)
8 | 0.017 mg/mL (≈ 32.7 µM) | Cc1ccc(S(=O)(=O)N2CCN(C(=O)COC(=O)c3cc([N+](=O)[O-])ccc3NCCO)CC2)c(C)c1
9 | > 0.0538 mg/mL | Cc1ccc(S(=O)(=O)Nc2ccccc2C(=O)N2CCCCC2)cc1
10 | 0.0325 mg/mL (≈ 125 µM) | Cc1cccc(CC(=O)NCCN2CCCCC2)c1
11 | > 0.0518 mg/mL | COc1ccc(NC(=O)COC(=O)C2C3CC4OC(=O)C2C4C3)cc1 (centres undefined)
12 | < 0.0002 mg/mL | CC(NC(=O)C(=O)NCCc1c[nH]c2ccccc12)c1ccccc1 (centres undefined)
13 | 0.0548 mg/mL (≈ 142 µM) | COc1ccc(N2CCN(C(CNC(=O)C(C)(C)C)c3ccco3)CC2)cc1 (centres undefined)
14 | 0.0334 mg/mL (≈ 102 µM) | CC(C)(C)n1cnc2cc(NC(=O)c3ccc(Cl)cc3)ccc21
15 | 0.0289 mg/mL (≈ 102 µM) | CCOC(=O)c1csc(NC(=O)c2cccs2)n1
16 | 0.0435 mg/mL (≈ 143 µM) | O=C(NCCN1CCOCC1)c1ccc(Cl)c(Cl)c1
17 | 0.0085 mg/mL (≈ 19.3 µM) | CC(OC(=O)c1ccc(NC(=O)CC#N)cc1)C(=O)NC(c1ccccc1)c1ccccc1 (centres undefined)
18 | 0.0396 mg/mL (≈ 115 µM) | COc1ccc2nc(SCC(=O)Nc3ccccc3OC)[nH]c2c1
19 | 0.0036 mg/mL (≈ 10.4 µM) | O=C(COC(=O)c1cccc(Cl)c1)NC(=O)NCc1ccccc1
20 | 0.0291 mg/mL (≈ 88.6 µM) | COCc1cc(C)nc(SCC(=O)Oc2ccccc2)c1C#N
21 | > 0.0571 mg/mL | CC(=O)N/C(=C\c1ccccc1)C(=O)OCC(=O)NC1CCS(=O)(=O)C1 (centres undefined)

Row | solubility kinetic | SMILES
22 | > 0.0472 mg/mL | CS(=O)(=O)N1CCN(C(=O)CSc2ccccc2)CC1
23 | > 0.0452 mg/mL | Cc1noc(C)c1CN1C(=O)c2cccc([N+](=O)[O-])c2C1=O
24 | > 0.0482 mg/mL | COCCCNC(=O)c1cc(-c2cccnc2)nc2ccccc12
25 | 0.03 mg/mL (≈ 111 µM) | O=C(Cc1c(F)cccc1Cl)Nc1nccs1
26 | > 0.0335 mg/mL | O=CN1Cc2ccccc2-c2ccccc2C1
27 | > 0.0517 mg/mL | CCOC(=O)CNC(=O)CN1CCC(c2nc3ccccc3[nH]2)CC1
28 | > 0.055 mg/mL | O=S(=O)(/N=C(/c1ccccc1)N1CCOCC1)c1ccc(F)cc1F
29 | 0.001 mg/mL (≈ 2.77 µM) | Nc1nc(Nc2ccc(Cl)cc2)nc(NCc2ccco2)c1[N+](=O)[O-]
30 | 0.0138 mg/mL (≈ 57.4 µM) | CC(C)(C)C(=O)Nc1ccc(F)cc1[N+](=O)[O-]
31 | > 0.0461 mg/mL | O=C(Nc1ncc([N+](=O)[O-])s1)C1COc2ccccc2O1 (centres undefined)
32 | > 0.0491 mg/mL | Cc1ccc(S(=O)(=O)N2CCC(C(N)=O)CC2)cc1[N+](=O)[O-]
33 | 0.0343 mg/mL (≈ 94.1 µM) | NS(=O)(=O)c1ccc(OC(=O)CNC(=O)OCc2ccccc2)cc1
34 | > 0.0543 mg/mL | O=C(Nc1ccc(Br)cc1)c1cccnc1N1CCOCC1
35 | > 0.0505 mg/mL | NS(=O)(=O)c1ccc(N2CCN(C(=O)c3ccco3)CC2)nc1
36 | 0.0007 mg/mL (≈ 1.99 µM) | Cc1ccccc1NC(=S)N(Cc1ccccc1)Cc1cccs1
37 | 0.0239 mg/mL (≈ 75.1 µM) | CCOC(=O)C1CCCN(C(=O)c2cc3cc(F)ccc3[nH]2)C1 (centres undefined)
38 | > 0.0506 mg/mL | CC1CC(C)(C)NC(=S)N1CCC(=O)NCc1ccc(F)cc1 (centres undefined)
39 | 0.0057 mg/mL (≈ 18.1 µM) | CCC(CC)C(=O)Nc1ccc(C(=O)Nc2cc(C)on2)cc1
40 | 0.0114 mg/mL (≈ 22.8 µM) | CCOc1cc(C(=O)OC(C(=O)NC(=O)NC)c2ccccc2)ccc1OCC(=O)N1CCOCC1 (centres undefined)
41 | > 0.0353 mg/mL | CNC(=O)CSc1nc(SC)ns1
42 | > 0.0454 mg/mL | O=C1NCCCCC1NS(=O)(=O)c1ccc(Cl)cc1 (centres undefined)

Row | solubility kinetic | SMILES
43 | 0.0016 mg/mL (≈ 4.26 µM) | COC(=O)CSc1ncnc2c1sc1nc3c(cc12)COC(C)(C)C3
44 | > 0.0609 mg/mL | CC(=O)Nc1ccc(SCC(=O)N(C)CC(=O)Nc2ccccc2Cl)cc1
45 | 0.0166 mg/mL (≈ 59 µM) | COc1ccccc1CCC(=O)Oc1ccccc1C#N
46 | > 0.0529 mg/mL | O=C(NC(Cc1c[nH]c2ccccc12)C(=O)O)c1ccc2c(c1)OCO2 (centres undefined)
47 | 0.0086 mg/mL (≈ 32.8 µM) | COc1ccccc1CCC(=O)Nc1nccs1
48 | 0.0004 mg/mL | Br.Cc1ccnc(Nc2nc(-c3ccccc3)cs2)c1
49 | > 0.053 mg/mL | COC(=O)c1c(C)oc(C)c1S(=O)(=O)NCc1ccc(OC)cc1
50 | > 0.0466 mg/mL | NS(=O)(=O)c1ccc(CNC(=O)Cc2ccsc2)cc1
51 | 0.0008 mg/mL (≈ 3.26 µM) | Cc1ccc2[nH]c3c(c2c1)SC(C)(C)CC3=O
52 | 0.036 mg/mL (≈ 149 µM) | Cc1cc(C(=O)O)ccc1NCc1cccnc1
53 | 0.0033 mg/mL (≈ 10.1 µM) | COc1ccc(OCC(=O)Nc2ccc3oc(=O)ccc3c2)cc1
54 | 0.0506 mg/mL (≈ 148 µM) | COc1ccc(C(=O)C2CCN(C(=O)c3ccc(F)cc3)CC2)cc1
55 | > 0.038 mg/mL | CN1CC(=O)N(CC(=O)NC2CCCCC2)C1=O
56 | 0.0389 mg/mL (≈ 139 µM) | O=C(O)COCC(=O)NCc1csc2ccccc12
57 | 0.023 mg/mL (≈ 93 µM) | Cc1ccc(CNc2ccccc2C(=O)O)s1
58 | > 0.044 mg/mL | COC(=O)c1cc(N=C(N)N=C(N)N)cc(C(=O)OC)c1
59 | > 0.038 mg/mL | O=c1cc([O-])n(Cc2ccc(F)cc2)c(=O)[nH]1.[NH4+]
60 | 0.0403 mg/mL (≈ 132 µM) | O=C(COC(=O)c1ccncc1)Nc1cccc2ccccc12
61 | 0.0024 mg/mL (≈ 9.03 µM) | O=C(CC1CCCCC1)NCc1ccc(Cl)cc1
62 | 0.0072 mg/mL (≈ 22.3 µM) | Cn1c(=O)oc2cc(S(=O)(=O)Nc3ccc(F)cc3)ccc21
63 | 0.0126 mg/mL (≈ 34.2 µM) | CN(Cc1ccccc1)C(=O)COc1ccc(Br)cc1Cl

Row | solubility kinetic | SMILES
64 | 0.0413 mg/mL (≈ 122 µM) | CCCN(Cc1ccco1)S(=O)(=O)c1ccc(OC)c(OC)c1
65 | 0.0048 mg/mL (≈ 14 µM) | Cc1ccc(S(=O)(=O)CC(=O)Nc2ccc(F)c(F)c2F)cc1
66 | 0.0017 mg/mL (≈ 4.76 µM) | COc1ccc(Br)cc1C(=O)Nc1cccc2ncccc12
67 | > 0.0425 mg/mL | COc1cc(C(=S)N2CCOCC2)cc(OC)c1O
68 | 0.0101 mg/mL (≈ 31.7 µM) | CC(C)(C)c1ccc(C(=O)NC(=S)N2CCCCCC2)cc1
69 | 0.0087 mg/mL (≈ 29.1 µM) | Cc1ccnc(Nc2nc(-c3ccc(O)c(O)c3)cs2)c1
70 | 0.0003 mg/mL (≈ 0.799 µM) | COc1cc(C(=O)O/N=C(\N)c2cccc([N+](=O)[O-])c2)cc(OC)c1OC
71 | 0.0181 mg/mL (≈ 54.6 µM) | O=C(COC(=O)c1ccccc1F)NCc1ccc2c(c1)OCO2
72 | < 0.0003 mg/mL | CCOC(=O)c1ccc(NC(=S)NC(=O)C2CCCC2)cc1
73 | 0.037 mg/mL (≈ 123 µM) | Cc1ccc2ccc(S(=O)(=O)NCc3ccco3)cc2c1
74 | 0.0396 mg/mL (≈ 139 µM) | COc1ccccc1NC(=O)c1ccc2nsnc2c1
75 | 0.0101 mg/mL (≈ 26.3 µM) | O=C(COC(=O)c1cccnc1Cl)NC(=O)c1ccc(OC(F)F)cc1
76 | > 0.0476 mg/mL | S=C(NCc1ccccc1)N1CCN(C2CCCCC2)CC1
77 | 0.0083 mg/mL (≈ 23.9 µM) | Cc1cc(=O)oc2cc(N3C(=O)CC(Cc4ccccc4)C3=O)ccc12 (centres undefined)
78 | > 0.0466 mg/mL | Cc1cccc(C)c1NC(=O)C1CCN(S(C)(=O)=O)CC1
79 | > 0.0524 mg/mL | CCN1C(C(=O)Nc2cc(C)on2)=C(O)c2ccccc2S1(=O)=O
80 | > 0.04 mg/mL | Nc1cc(N)nc(SCc2ccc(Cl)cc2)n1
81 | 0.0041 mg/mL (≈ 15.5 µM) | N#CCNC(=O)C1c2ccccc2Oc2ccccc21
82 | 0.0006 mg/mL (≈ 1.69 µM) | Cc1ccc(C(=O)NC2CCN(C(=O)Nc3ccc(F)cc3)CC2)cc1
83 | > 0.0392 mg/mL | O=S(=O)(NC1CCCC1)c1cc(F)ccc1F
84 | > 0.0421 mg/mL | CC1CCN(C2(O)C(=O)Nc3ccc(Cl)cc32)CC1 (centres undefined)
